# Patent US20240358693A1, “METHODS OF TREATING PAIN” (Aisa Pharma, Inc., priority 2023, published 2024)
# Tested on: participants with SSc-RP
# Assay: Average severity of weekly RP attacks (VAS 0-10 cm scale)
# Assay type: in vivo, human
# Source text: The absolute change in average severity of weekly RP attacks (VAS 0-10 cm scale) from baseline to the end of each Dosing Period was and will be a secondary outcome variable. The sponsor-developed participant-informed diary will be used to record data. Average severity of weekly RP attacks is defined as the total severity scores of RP attacks divided by total number of RP attacks within the last 7 days of each dosing period. Total severity scores of RP attacks during the last 7 days of screening period divided by the total number of RP attacks will be used as baseline for the analysis of all periods. The variable will be calculated similar to frequency data as before.
# [1] = Cilnidipine 20 mg, ITT Population - Part A
# [2] = Cilnidipine 20 mg, first Baseline RCS subgroup block (not named), ITT Part A
# [3] = Cilnidipine 20 mg, first Baseline RCS subgroup block (not named), ITT Part A, score 0-10
# [4] = Excluding Outliers, Cilnidipine 10 mg, first Baseline RCS subgroup block (not named), ITT Part A
# [5] = Excluding Outliers, Cilnidipine 10 mg, first Baseline RCS subgroup block (not named), ITT Part A, score 0-10
# [6] = Excluding Outliers, Cilnidipine 20 mg, first Baseline RCS subgroup block (not named), ITT Part A
# [7] = Excluding Outliers, Cilnidipine 20 mg, first Baseline RCS subgroup block (not named), ITT Part A, score 0-10
# [8] = Excluding Outliers, Pooled Cilnidipine 10 mg and Cilnidipine 10 mg + Tadalafil 5 mg, first Baseline RCS subgroup block (not named), ITT Part A
# [9] = Excluding Outliers, Pooled Cilnidipine 10 mg and Cilnidipine 10 mg + Tadalafil 5 mg, first Baseline RCS subgroup block (not named), ITT Part A, score 0-10
# [10] = Excluding Outliers, Pooled Cilnidipine 10 mg and Cilnidipine 10 mg + Tadalafil 5 mg, second Baseline RCS subgroup block (not named), ITT Part A
# [11] = Excluding Outliers, Pooled Cilnidipine 10 mg and Cilnidipine 10 mg + Tadalafil 5 mg, second Baseline RCS subgroup block (not named), ITT Part A, score 0-10
# [12] = Excluding Outliers, Pooled Cilnidipine 20 mg and Cilnidipine 20 mg + Tadalafil 5 mg, first Baseline RCS subgroup block (not named), ITT Part A
# [13] = Excluding Outliers, Pooled Cilnidipine 20 mg and Cilnidipine 20 mg + Tadalafil 5 mg, first Baseline RCS subgroup block (not named), ITT Part A, score 0-10
# [14] = Excluding Outliers, Pooled Cilnidipine 20 mg and Cilnidipine 20 mg + Tadalafil 5 mg, second Baseline RCS subgroup block (not named), ITT Part A
# [15] = Excluding Outliers, Pooled Cilnidipine 20 mg and Cilnidipine 20 mg + Tadalafil 5 mg, second Baseline RCS subgroup block (not named), ITT Part A, score 0-10
# [16] = Excluding Outliers, Pooled Cilnidipine, first Baseline RCS subgroup block (not named), ITT Part A
# [17] = Excluding Outliers, Pooled Cilnidipine, first Baseline RCS subgroup block (not named), ITT Part A, score 0-10
# [18] = Pooled (over cilnidipine doses), Excluding Outliers, ITT Population - Part A
# [19] = Pooled (over cilnidipine doses), Excluding Outliers, by Baseline RCS, first subgroup, ITT Population - Part A
# [20] = Pooled (over cilnidipine doses), ITT Population - Part A
compound,measurement,setting,value
"COCCOC(=O)C1=C(C)NC(C)=C(C(=O)OC/C=C/c2ccccc2)C1c1cccc([N+](=O)[O-])c1 (stereo not shown) [Cilnidipine, cilnidipine]","Average Severity of Weekly RP Attacks (All Attacks), Change from Baseline, Median",[1],−1.07
same,"Average Severity of Weekly RP Attacks (All Attacks), Mean",[1],2.30
same,"Average Severity of Weekly RP Attacks (All Attacks), Median",[1],2.30
same,"Average Severity of Weekly RP Attacks (All Attacks), Percent Change from Baseline, Mean",[1],−27.26%
same,"Average Severity of Weekly RP Attacks (All Attacks), Percent Change from Baseline, Median",[1],−27.26%
same,"Average Severity of Weekly RP Attacks (All Attacks), Percent Change from Baseline, Mean",[2],−27.26%
same,"Average Severity of Weekly RP Attacks (All Attacks), Percent Change from Baseline, Median",[2],−27.26%
same,"Average Severity of Weekly RP Attacks (All Attacks), Change from Baseline, Mean",[3],−1.07
same,"Average Severity of Weekly RP Attacks (All Attacks), Change from Baseline, Median",[3],−1.07
same,"Average Severity of Weekly RP Attacks (All Attacks), Mean",[3],2.30
same,"Average Severity of Weekly RP Attacks (All Attacks), Median",[3],2.30
same,Mean % reduction in severity,Cilnidipine (20 mg) (n = 3),35.5%
same,Mean severity at baseline,Cilnidipine (20 mg) (n = 3),3.7
same,Severity,Cilnidipine (20 mg) (n = 3),−36%
same,"Average Severity of Weekly RP Attacks (All Attacks), Percent Change from Baseline, Mean",[4],0.55%
same,"Average Severity of Weekly RP Attacks (All Attacks), Percent Change from Baseline, Median",[4],0.55%
same,"Average Severity of Weekly RP Attacks (All Attacks), Change from Baseline, Mean",[5],0.02
same,"Average Severity of Weekly RP Attacks (All Attacks), Change from Baseline, Median",[5],0.02
same,"Average Severity of Weekly RP Attacks (All Attacks), Mean",[5],3.05
same,"Average Severity of Weekly RP Attacks (All Attacks), Median",[5],3.05
same,"Average Severity of Weekly RP Attacks (All Attacks), Percent Change from Baseline, Mean",[6],−27.26%
same,"Average Severity of Weekly RP Attacks (All Attacks), Percent Change from Baseline, Median",[6],−27.26%
same,"Average Severity of Weekly RP Attacks (All Attacks), Change from Baseline, Mean",[7],−1.07
same,"Average Severity of Weekly RP Attacks (All Attacks), Change from Baseline, Median",[7],−1.07
same,"Average Severity of Weekly RP Attacks (All Attacks), Mean",[7],2.30
same,"Average Severity of Weekly RP Attacks (All Attacks), Median",[7],2.30
same,"Average Severity of Weekly RP Attacks (All Attacks), Percent Change from Baseline, Mean",[8],−23.94%
same,"Average Severity of Weekly RP Attacks (All Attacks), Percent Change from Baseline, Median",[8],−23.94%
same,"Average Severity of Weekly RP Attacks (All Attacks), Change from Baseline, Mean",[9],−1.35
same,"Average Severity of Weekly RP Attacks (All Attacks), Change from Baseline, Median",[9],−1.35
same,"Average Severity of Weekly RP Attacks (All Attacks), Mean",[9],2.97
same,"Average Severity of Weekly RP Attacks (All Attacks), Median",[9],2.97
same,"Average Severity of Weekly RP Attacks (All Attacks), Percent Change from Baseline, Mean",[10],−21.20%
same,"Average Severity of Weekly RP Attacks (All Attacks), Percent Change from Baseline, Median",[10],−21.20%
same,"Average Severity of Weekly RP Attacks (All Attacks), Change from Baseline, Mean",[11],−1.32
same,"Average Severity of Weekly RP Attacks (All Attacks), Change from Baseline, Median",[11],−1.32
same,"Average Severity of Weekly RP Attacks (All Attacks), Mean",[11],4.90
same,"Average Severity of Weekly RP Attacks (All Attacks), Median",[11],4.90
same,"Average Severity of Weekly RP Attacks (All Attacks), Percent Change from Baseline, Mean",[12],−21.36%
same,"Average Severity of Weekly RP Attacks (All Attacks), Percent Change from Baseline, Median",[12],−9.57%
same,"Average Severity of Weekly RP Attacks (All Attacks), Change from Baseline, Mean",[13],−0.84
same,"Average Severity of Weekly RP Attacks (All Attacks), Change from Baseline, Median",[13],−0.39
same,"Average Severity of Weekly RP Attacks (All Attacks), Mean",[13],2.78
same,"Average Severity of Weekly RP Attacks (All Attacks), Median",[13],2.40
same,"Average Severity of Weekly RP Attacks (All Attacks), Percent Change from Baseline, Mean",[14],−23.23%
same,"Average Severity of Weekly RP Attacks (All Attacks), Percent Change from Baseline, Median",[14],−23.23%
same,"Average Severity of Weekly RP Attacks (All Attacks), Change from Baseline, Mean",[15],−1.53
same,"Average Severity of Weekly RP Attacks (All Attacks), Change from Baseline, Median",[15],−1.53
same,"Average Severity of Weekly RP Attacks (All Attacks), Mean",[15],5.06
same,"Average Severity of Weekly RP Attacks (All Attacks), Median",[15],5.06
same,"Average Severity of Weekly RP Attacks (All Attacks), Percent Change from Baseline, Mean",[16],−17.99%
same,"Average Severity of Weekly RP Attacks (All Attacks), Percent Change from Baseline, Median",[16],−7.69%
same,"Average Severity of Weekly RP Attacks (All Attacks), Change from Baseline, Mean",[17],−0.71
same,"Average Severity of Weekly RP Attacks (All Attacks), Change from Baseline, Median",[17],−0.20
same,"Average Severity of Weekly RP Attacks (All Attacks), Mean",[17],2.55
same,"Average Severity of Weekly RP Attacks (All Attacks), Median",[17],2.40
same,"Average Severity of Weekly RP Attacks (All Attacks), Change from Baseline, Mean",[18],−0.71
same,"Average Severity of Weekly RP Attacks (All Attacks), Change from Baseline, Median",[18],−0.20
same,"Average Severity of Weekly RP Attacks (All Attacks), Mean",[18],2.55
same,"Average Severity of Weekly RP Attacks (All Attacks), Median",[18],2.40
same,"Average Severity of Weekly RP Attacks (All Attacks), Percent Change from Baseline, Mean",[18],−17.99%
same,"Average Severity of Weekly RP Attacks (All Attacks), Percent Change from Baseline, Median",[18],−7.69%
same,Average Severity of Weekly Symptomatic RP Attacks (Mean),[19],2.79
same,Average Severity of Weekly Symptomatic RP Attacks (Median),[19],2.40
same,"Average Severity of Weekly Symptomatic RP Attacks, Change from Baseline, Mean",[19],−0.87
same,"Average Severity of Weekly Symptomatic RP Attacks, Change from Baseline, Median",[19],−0.33
same,"Average Severity of Weekly Symptomatic RP Attacks, Percent Change from Baseline, Mean",[19],−19.22%
same,"Average Severity of Weekly Symptomatic RP Attacks, Percent Change from Baseline, Median",[19],−12.02%
same,"Average Severity of Weekly RP Attacks (All Attacks), Change from Baseline, Mean",[20],−0.71
same,"Average Severity of Weekly RP Attacks (All Attacks), Change from Baseline, Median",[20],−0.20
same,"Average Severity of Weekly RP Attacks (All Attacks), Mean",[20],2.55
same,"Average Severity of Weekly RP Attacks (All Attacks), Median",[20],2.40
same,"Average Severity of Weekly RP Attacks (All Attacks), Percent Change from Baseline, Mean",[20],−17.99%
